# Assay results: PMC8752738, “A propolis-derived small molecule ameliorates metabolic syndrome in obese mice by targeting the CREB/CRTC2 transcriptional complex” (Nature Communications, 2022)
# Values joined by “and” are separate entries in the source; they are usually repeats but may differ in a detail not shown here. Identical values can stand only once.
# Molecular target: T1, GST-CREB / FLAG-CRTC2 interaction (Homo sapiens, UniProt P16220)
# T1 construct: made in house; host or cells: GST-CREB beads (pGEX5X-1); FLAG-CRTC2 expressed in HEK293T cells
# T1 sequence (P16220 whole entry): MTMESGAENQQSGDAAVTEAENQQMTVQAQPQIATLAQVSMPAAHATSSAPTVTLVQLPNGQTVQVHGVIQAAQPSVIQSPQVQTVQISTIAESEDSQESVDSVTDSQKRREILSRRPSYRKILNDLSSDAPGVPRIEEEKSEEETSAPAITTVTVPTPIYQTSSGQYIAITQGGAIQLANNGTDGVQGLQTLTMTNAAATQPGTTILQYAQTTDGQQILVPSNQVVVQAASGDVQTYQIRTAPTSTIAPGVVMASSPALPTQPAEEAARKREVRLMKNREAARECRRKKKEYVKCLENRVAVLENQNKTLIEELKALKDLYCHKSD
# Test: GST-pull-down of FLAG-CRTC2 from HEK293T lysates by GST-CREB beads
# Format: biochemical
# From the text: To further confirm whether APC disrupts the protein association between CREB and CRTC2, we performed GST-pull-down assays in which GST-CREB beads were used to immunoprecipitated FLAG-tagged CRTC2 proteins that were expressed in HEK293T cells. As expected, APC attenuated the amounts of FLAG-CRTC2 proteins recovered by GST-CREB beads from HEK293T cell lysates (Fig. 2a). […] In contrast, APC had little effect on the association of GST-CREB with HA-P300 (Supplementary Fig. 2a), as well as the interaction between endogenous CRTC2 and CBP proteins (Fig. 2c). […]
# Fig. 2 APC blocks interaction between CREB and CRTC2. a Analysis of GST-CREB immunoprecipitated with overexpressed FLAG-CRTC2 from the lysates of HEK293T cells. […] Data are represented as mean ± SEM); P values were determined by one-way ANOVA followed Dunnett’s multiple comparisons test. b Analysis of HA-CRTC2 immunoprecipitated with endogenous CREB from primary hepatocyte lysates. […] Data are represented as mean ± SEM; P values were determined by one-way ANOVA followed Dunnett’s multiple comparisons test. c Immunoblotting analysis of endogenous CREB, CRTC2, and CBP interaction by an anti-CRTC2 antibody from the lysate of primary hepatocytes. […] Data are represented as mean ± SEM; P values were determined by one-way ANOVA followed Dunnett’s multiple comparisons test (compared with APC = 0). […]
smiles,measurement,setting,value
"CC(C)=CCc1cc(C=CC(=O)O)cc(CC=C(C)C)c1O [APC, 3,5-diprenyl-4-hydroxycinnamic acid]",Pull down FLAG/GST band dentsity (FLAG in IP fraction),"Fig 2a source data, replicates, GST-CREB beads +, FLAG-CRTC2 +, APC + (10 μM)",1.359 FOLDS and 1.3596 FOLDS and 1.382 FOLDS
same,FLAG-CRTC2 recovered by GST-CREB beads,"HEK293T lysates, APC 10 μM",attenuated
